The values below are quoted from earlier work in patent US20110230564A1, “ANT4 INHIBITOR COMPOUNDS AND METHODS OF USE THEREOF” (priority 2008, published 2011).

Each structure is given as a SMILES string.

This series relates to sperm. Conditions: 50 μM.

With `CO[C@H](C/C=C\C=C\CC/C=C/C[C@H](C)/C=C/C(=C\C(=O)O)CC(=O)O)/C(C)=C\C=C(/C)C(=O)O` [Bongkrekic acid], the sperm motility result was “almost completely immotile”.
